Among the data in PubChem BioAssay (NCI) are TGI and GI50 values, retold here.

Test in all cases: growth of human tumour cells (NCI), 48 h
Experiment [1] concerns HL-60(TB) leukemia.
Experiment [2] deals with SF-295 CNS.
Experiment [3] concerns UACC-257 melanoma.
Experiment [4] concerns A498 renal.
The test system of experiment [5] is SNB-75 CNS.
In experiment [6] the test system is RPMI-8226 leukemia.
The subject of experiment [7] is LOX IMVI melanoma.
In experiment [8] the test system is EKVX NSCLC.
Experiment [9] relates to UO-31 renal.
Experiment [10] deals with U251 CNS.

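Grown in 96-well plates, cells were treated for 48 hours with each compound at five concentrations. Insufficient inhibition: endpoint recorded as highest concentration tested. GI50 is the concentration that inhibits growth by half. TGI: total growth inhibition.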

With `CCN(CC)CCNc1ccc2nnn3c4ccccc4c(=O)c1c23`, the TGI in experiment [1] is 8.59 µM; in experiment [2], 15.3 µM; in experiment [3], 22.3 µM; in [4], 24.2 µM; in experiment [5], 11.9 µM; in experiment [6], > 24.2 µM. Also, the TGI in [7] was 12 µM; in experiment [8], 19.4 µM; in experiment [9] it was 29.3 µM; in experiment [10], 9.22 µM.
With `Oc1cc(CN2COc3ccccc32)c(O)cc1CNC1CCCCC1`, the TGI in experiment [2] was > 100 µM; in experiment [3], 30.6 µM; in [4], 49.9 µM; in [5], 38.9 µM; in [6], 64.5 µM; in [7] it was 31.6 µM. The figures for the TGI in [8], in experiment [9] and in [10] were 36.3 µM, > 100 µM and 32.5 µM, respectively.
On to `NC(N)=NC(N)=Nc1ccccc1` (tested in a mixture with another compound), for which the TGI in experiment [1], in [2], in experiment [3], in [4], in experiment [5] and in experiment [7] was > 100 µM in each case. Besides, the TGI in experiment [8], in [9] and in experiment [10] was > 100 µM each time.
For the molecule `Cc1ccc(C2CC(c3cccc(Nc4ccncc4)c3)=NN2c2ccccc2)cc1` (stereo not drawn), the GI50 in [2] is 1.76 µM; in experiment [4], 1.86 µM; in experiment [5] it was 1.32 µM; in experiment [8] it was 1.69 µM; in [9] it was 1.41 µM. Also, the TGI in experiment [2] is 3.17 µM; in experiment [4], 5.63 µM; in experiment [5], 2.88 µM; in experiment [8], 3.25 µM; in experiment [9] it was 2.74 µM.
For `C=CCc1cccc(/C=N\N=C(/N)NO)c1O`, the TGI in [1] was > 21.4 µM; in experiment [2], 7.09 µM; in experiment [3] it was 30.6 µM; in experiment [4] it was > 51.6 µM; in [5], 25.9 µM; in experiment [6], 14.6 µM. Besides, the TGI was 22.7 µM in experiment [7], 17.7 µM in [8], 6.69 µM in experiment [9] and > 88.3 µM in experiment [10].
Consider `Nc1ccccc1N=Nc1c(S(=O)(=O)O)cc2cc(S(=O)(=O)O)cc(O)c2c1O`, for which the TGI in experiment [2], in [3], in experiment [4], in [5], in experiment [6] and in experiment [7] was > 100 µM throughout. In addition, the TGI in experiment [8], in experiment [9] and in experiment [10] was > 100 µM in each case.
With `CC1=CC(C)(C)Nc2ccc(CSc3ccccc3)cc21`, the TGI in experiment [2] was 48.2 µM; in experiment [3], 59.3 µM; in [4], 74.4 µM; in experiment [5], 51.3 µM; in experiment [6] it was 31.2 µM; in experiment [7], 82.3 µM. The TGI is 59.9 µM in experiment [8], 50.8 µM in experiment [9] and > 100 µM in experiment [10].
With `CC(C)CN(CC#N)CC(C)C`, the TGI in experiment [1], in experiment [2], in experiment [3], in experiment [4], in experiment [5] and in [6] was > 100 µM in each case. Also, the TGI in experiment [7], in experiment [8], in experiment [9] and in experiment [10] was > 100 µM each time.
Consider `CC(=O)N/C(=C\c1ccc(/C=C(\NC(C)=O)C2=NC3C(=O)c4ccccc4C(=O)C3N2)cc1)C1=NC2C(=O)c3ccccc3C(=O)C2N1` (stereo not drawn), for which the TGI was > 100 µM in experiment [1]; > 100 µM in [2]; > 100 µM in experiment [3]; > 100 µM in experiment [4]; 76.2 µM in [5]; > 100 µM in experiment [6]. Further, the TGI was > 100 µM in experiment [7], > 100 µM in experiment [8], 74.1 µM in experiment [9] and > 100 µM in [10].
Take `Cc1c2c(ccc3ccccc32)c[n+]2ccccc12`: the TGI in experiment [1] is 68.5 µM; in [2], 22.5 µM; in experiment [3], 26.5 µM; in experiment [5] it was 8.94 µM; in [6] it was > 100 µM; in experiment [9], > 100 µM. In addition, in experiment [10], the TGI was 13.8 µM.
For `C[N+](C)([O-])Cc1cc(-c2ccccc2)ccc1O`, the TGI in [2], in experiment [3], in [4], in [5], in experiment [7] and in [8] was > 100 µM each time. Further, the TGI in [9] and in experiment [10] was > 100 µM throughout.
Consider `O=c1nc2sc3ccc4ccccc4c3n2[nH]c1=O`, for which the TGI in experiment [1], in experiment [2], in experiment [5], in [8] and in experiment [10] was > 100 µM each time.
With `O=C(O)Cn1c2c(c3c(O)cccc31)C(=O)c1ccccc1-2`, the GI50 in experiment [1], in experiment [2], in experiment [3], in [4], in experiment [5] and in experiment [7] was > 100 µM in each case. The GI50 was 3.2 µM in experiment [8], > 100 µM in experiment [9] and > 100 µM in experiment [10]. The TGI in [1], in [2], in experiment [3], in [4], in experiment [5] and in experiment [7] was > 100 µM in each case. Besides, the TGI in experiment [8], in experiment [9] and in experiment [10] was > 100 µM throughout.
`C[C@]12CC[C@@H]3c4ccc(OCCN5CCCC5)cc4CC[C@H]3[C@@H]1CCC2=O`: the TGI in experiment [1] is > 100 µM; in [2] it was 43.2 µM; in experiment [3] it was > 100 µM; in experiment [4], > 100 µM; in experiment [6] it was > 100 µM; in experiment [7] it was 29.7 µM. In addition, the figures for the TGI in [8], in experiment [9] and in experiment [10] were 67.6 µM, 61.9 µM and > 100 µM, respectively.
Consider `CCCCN=C1OCc2[nH][nH]c(=O)c21`, for which the TGI in experiment [1], in [2], in experiment [3], in experiment [4], in experiment [5] and in experiment [6] was > 100 µM in each case. For the same molecule, the TGI in experiment [7], in experiment [8], in [9] and in experiment [10] was > 100 µM in each case.
For the molecule `[O-][n+]1c(-c2ccccc2)c2nc3ccccc3nc2c2ccccc21`, the TGI is > 100 µM in experiment [2]; > 100 µM in [3]; > 100 µM in [4]; 99 µM in experiment [5]; > 100 µM in [6]; > 100 µM in [7]. Further, the TGI in experiment [8], in [9] and in experiment [10] was > 100 µM in each case.
With `O=C(O)c1nccnc1C(=O)O`, the TGI in experiment [1], in [2], in [3], in [5], in experiment [6] and in [7] was > 100 µM in each case. For the same molecule, the TGI in experiment [8], in [9] and in experiment [10] was > 100 µM throughout.
For `CCCCCCCCCCCCCCCC(=O)OC1C(O)C(CO)OC(OC)C1NC(=O)N(CCCl)N=O` (stereo not drawn), the TGI in experiment [2] was 24 µM; in [3], 31.5 µM; in experiment [5] it was 24.6 µM; in experiment [6], > 100 µM; in [7], 23.9 µM; in experiment [8], 34.7 µM. In addition, the TGI is 28.5 µM in experiment [9] and 19.9 µM in [10].
For the molecule `CCCOC1OC(CS(=O)(=O)O)C(O)C(O)C1O` (stereo not drawn), the TGI in [1], in experiment [2], in experiment [3], in [4], in experiment [5] and in experiment [6] was > 100 µM each time. In addition, the TGI in experiment [7], in [9] and in [10] was > 100 µM each time.
As for `CN(C)C(=O)C1CCN(Cc2c[nH]c3ccccc23)CC1`, the TGI in [1], in experiment [2], in [3], in experiment [4], in experiment [5] and in [6] was > 100 µM each time. Further, the TGI in [7], in [8], in experiment [9] and in experiment [10] was > 100 µM throughout.
On to `CCOC(=O)NC(Nc1ccc(Cl)cn1)(C(F)(F)F)C(F)(F)F`, for which the TGI in experiment [1], in [3], in experiment [4], in experiment [5], in experiment [6] and in experiment [7] was > 100 µM in each case. Also, the TGI in experiment [8], in experiment [9] and in experiment [10] was > 100 µM throughout.
As to `N#CCCN(CCC#N)c1ccc(/C=C2\N=C(c3cc([N+](=O)[O-])ccc3Cl)N(NC(=O)CC(=O)Nc3ccccc3Cl)C2=O)cc1`, the TGI in experiment [2], in [6], in experiment [7], in [8], in experiment [9] and in [10] was > 100 µM throughout.
